PubChem BioAssay (NCI)
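Exposure lasted 48 hours, with cells grown in 96-well plates and compounds tested at five concentrations. TGI: total growth inhibition.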

Assays:
Test in all cases: growth of human tumour cells (NCI), 48 h
786-0 renal = system: 786-0 renal
A498 renal = system: A498 renal
A549 NSCLC = system: A549 NSCLC
ACHN renal = system: ACHN renal
BT-549 breast = system: BT-549 breast
CAKI-1 renal = system: CAKI-1 renal
CCRF-CEM leukemia = system: CCRF-CEM leukemia
COLO 205 colon = system: COLO 205 colon
DU-145 prostate = system: DU-145 prostate
EKVX NSCLC = system: EKVX NSCLC
HCC-2998 colon = system: HCC-2998 colon
HCT-116 colon = system: HCT-116 colon
HCT-15 colon = system: HCT-15 colon
HOP-62 NSCLC = system: HOP-62 NSCLC
HOP-92 NSCLC = system: HOP-92 NSCLC
HS 578T breast = system: HS 578T breast
HT29 colon = system: HT29 colon
IGROV1 ovarian = system: IGROV1 ovarian
K-562 leukemia = system: K-562 leukemia
KM12 colon = system: KM12 colon
LOX IMVI melanoma = system: LOX IMVI melanoma
M14 melanoma = system: M14 melanoma
MALME-3M melanoma = system: MALME-3M melanoma
MCF7 breast = system: MCF7 breast
MDA-MB-231 breast = system: MDA-MB-231 breast
MDA-MB-435 = system: MDA-MB-435
MDA-N = system: MDA-N
NCI-H226 lung = system: NCI-H226 lung
NCI-H23 lung = system: NCI-H23 lung
NCI-H460 lung = system: NCI-H460 lung
NCI-H522 lung = system: NCI-H522 lung
NCI/ADR-RES ovarian = system: NCI/ADR-RES ovarian
OVCAR-3 ovarian = system: OVCAR-3 ovarian
OVCAR-4 ovarian = system: OVCAR-4 ovarian
OVCAR-5 ovarian = system: OVCAR-5 ovarian
OVCAR-8 ovarian = system: OVCAR-8 ovarian
PC-3 prostate = system: PC-3 prostate
RPMI-8226 leukemia = system: RPMI-8226 leukemia
RXF 393 renal = system: RXF 393 renal
SF-268 CNS = system: SF-268 CNS
SF-295 CNS = system: SF-295 CNS
SF-539 CNS = system: SF-539 CNS
SK-MEL-2 melanoma = system: SK-MEL-2 melanoma
SK-MEL-28 melanoma = system: SK-MEL-28 melanoma
SK-MEL-5 melanoma = system: SK-MEL-5 melanoma
SK-OV-3 ovarian = system: SK-OV-3 ovarian
SN12C renal = system: SN12C renal
SNB-19 CNS = system: SNB-19 CNS
SNB-75 CNS = system: SNB-75 CNS
SR leukemia = system: SR leukemia
SW-620 colon = system: SW-620 colon
T-47D breast = system: T-47D breast
TK-10 renal = system: TK-10 renal
U251 CNS = system: U251 CNS
UACC-257 melanoma = system: UACC-257 melanoma
UACC-62 melanoma = system: UACC-62 melanoma
UO-31 renal = system: UO-31 renal
HL-60(TB) leukemia = system: HL-60(TB) leukemia

Question: `C=CCC1CC(n2cc(C)c(=O)[nH]c2=O)OC1CO[Si](C)(C)C(C)(C)C` (stereo not given) was tested. Which TGI (786-0 renal) did it give?
Answer: 28.8 µM

Question: What about the TGI (A498 renal) of the same compound?
Answer: 34.5 µM

Question: What about the TGI (A549 NSCLC) of the same compound?
Answer: 26.8 µM

Question: What about the TGI (ACHN renal) of the same compound?
Answer: 29.8 µM

Question: And the TGI (BT-549 breast)?
Answer: 29.6 µM

Question: What about the TGI (CAKI-1 renal) of the same compound?
Answer: 31.8 µM

Question: And the TGI (CCRF-CEM leukemia)?
Answer: 29.9 µM

Question: And the TGI (COLO 205 colon)?
Answer: 27 µM

Question: And the TGI (DU-145 prostate)?
Answer: 31.1 µM

Question: What about the TGI (EKVX NSCLC) of the same compound?
Answer: 19.8 µM

Question: What about the TGI (HCC-2998 colon) of the same compound?
Answer: 35.5 µM

Question: And the TGI (HCT-116 colon)?
Answer: 24.6 µM

Question: And the TGI (HCT-15 colon)?
Answer: 29.1 µM

Question: And the TGI (HOP-62 NSCLC)?
Answer: 34.7 µM

Question: What about the TGI (HOP-92 NSCLC) of the same compound?
Answer: 31 µM

Question: What about the TGI (HS 578T breast) of the same compound?
Answer: 29.4 µM

Question: What about the TGI (HT29 colon) of the same compound?
Answer: 30.9 µM

Question: And the TGI (IGROV1 ovarian)?
Answer: 23.4 µM

Question: And the TGI (K-562 leukemia)?
Answer: 24.3 µM

Question: What about the TGI (KM12 colon) of the same compound?
Answer: 35 µM

Question: And the TGI (LOX IMVI melanoma)?
Answer: 26.2 µM

Question: What about the TGI (M14 melanoma) of the same compound?
Answer: 33.5 µM

Question: And the TGI (MALME-3M melanoma)?
Answer: 23.2 µM

Question: And the TGI (MCF7 breast)?
Answer: 29.1 µM

Question: What about the TGI (MDA-MB-231 breast) of the same compound?
Answer: 28.9 µM

Question: What about the TGI (MDA-MB-435) of the same compound?
Answer: 28.2 µM

Question: And the TGI (MDA-N)?
Answer: 27.4 µM

Question: What about the TGI (NCI-H226 lung) of the same compound?
Answer: 28.4 µM

Question: What about the TGI (NCI-H23 lung) of the same compound?
Answer: 27.1 µM

Question: And the TGI (NCI-H460 lung)?
Answer: 38.9 µM

Question: What about the TGI (NCI-H522 lung) of the same compound?
Answer: 23.1 µM

Question: What about the TGI (NCI/ADR-RES ovarian) of the same compound?
Answer: 31.5 µM

Question: And the TGI (OVCAR-3 ovarian)?
Answer: 31 µM

Question: And the TGI (OVCAR-4 ovarian)?
Answer: 28.5 µM

Question: What about the TGI (OVCAR-5 ovarian) of the same compound?
Answer: 31.7 µM

Question: And the TGI (OVCAR-8 ovarian)?
Answer: 28.5 µM

Question: And the TGI (PC-3 prostate)?
Answer: 25.1 µM

Question: What about the TGI (RPMI-8226 leukemia) of the same compound?
Answer: 47.5 µM

Question: And the TGI (RXF 393 renal)?
Answer: 15.9 µM

Question: And the TGI (SF-268 CNS)?
Answer: 30.9 µM

Question: And the TGI (SF-295 CNS)?
Answer: 40 µM

Question: And the TGI (SF-539 CNS)?
Answer: 28.3 µM

Question: What about the TGI (SK-MEL-2 melanoma) of the same compound?
Answer: 32.8 µM

Question: What about the TGI (SK-MEL-28 melanoma) of the same compound?
Answer: 30.4 µM

Question: What about the TGI (SK-MEL-5 melanoma) of the same compound?
Answer: 29.9 µM

Question: What about the TGI (SK-OV-3 ovarian) of the same compound?
Answer: 29.2 µM

Question: And the TGI (SN12C renal)?
Answer: 29.1 µM

Question: What about the TGI (SNB-19 CNS) of the same compound?
Answer: 30.2 µM

Question: And the TGI (SNB-75 CNS)?
Answer: 25.4 µM

Question: And the TGI (SR leukemia)?
Answer: 11.5 µM

Question: What about the TGI (SW-620 colon) of the same compound?
Answer: 31.9 µM

Question: And the TGI (T-47D breast)?
Answer: 26.8 µM

Question: And the TGI (TK-10 renal)?
Answer: 30.1 µM

Question: What about the TGI (U251 CNS) of the same compound?
Answer: 29.6 µM

Question: What about the TGI (UACC-257 melanoma) of the same compound?
Answer: 33.8 µM

Question: What about the TGI (UACC-62 melanoma) of the same compound?
Answer: 31.7 µM

Question: What about the TGI (UO-31 renal) of the same compound?
Answer: 24.9 µM

Question: `NC(N)=NC(N)=Nc1ccc(S(=O)(=O)O)cc1` was tested. Which TGI (786-0 renal) did it give?
Answer: > 100 µM

Question: And the TGI (A498 renal)?
Answer: > 100 µM

Question: And the TGI (A549 NSCLC)?
Answer: > 100 µM

Question: And the TGI (ACHN renal)?
Answer: > 100 µM

Question: And the TGI (BT-549 breast)?
Answer: > 100 µM

Question: And the TGI (CAKI-1 renal)?
Answer: > 100 µM

Question: What about the TGI (CCRF-CEM leukemia) of the same compound?
Answer: > 100 µM

Question: What about the TGI (COLO 205 colon) of the same compound?
Answer: > 100 µM

Question: And the TGI (DU-145 prostate)?
Answer: > 100 µM

Question: And the TGI (EKVX NSCLC)?
Answer: > 100 µM

Question: And the TGI (HCC-2998 colon)?
Answer: > 100 µM

Question: What about the TGI (HCT-116 colon) of the same compound?
Answer: > 100 µM

Question: What about the TGI (HCT-15 colon) of the same compound?
Answer: > 100 µM

Question: What about the TGI (HL-60(TB) leukemia) of the same compound?
Answer: > 100 µM

Question: And the TGI (HOP-62 NSCLC)?
Answer: > 100 µM

Question: And the TGI (HOP-92 NSCLC)?
Answer: > 100 µM

Question: And the TGI (HS 578T breast)?
Answer: > 100 µM

Question: And the TGI (HT29 colon)?
Answer: > 100 µM

Question: What about the TGI (IGROV1 ovarian) of the same compound?
Answer: > 100 µM

Question: What about the TGI (K-562 leukemia) of the same compound?
Answer: > 100 µM

Question: And the TGI (KM12 colon)?
Answer: > 100 µM

Question: What about the TGI (LOX IMVI melanoma) of the same compound?
Answer: > 100 µM

Question: And the TGI (M14 melanoma)?
Answer: > 100 µM

Question: What about the TGI (MALME-3M melanoma) of the same compound?
Answer: > 100 µM

Question: What about the TGI (MCF7 breast) of the same compound?
Answer: > 100 µM

Question: And the TGI (MDA-MB-231 breast)?
Answer: > 100 µM

Question: And the TGI (MDA-MB-435)?
Answer: > 100 µM

Question: What about the TGI (MDA-N) of the same compound?
Answer: > 100 µM

Question: What about the TGI (NCI-H226 lung) of the same compound?
Answer: > 100 µM

Question: What about the TGI (NCI-H23 lung) of the same compound?
Answer: > 100 µM

Question: What about the TGI (NCI-H460 lung) of the same compound?
Answer: > 100 µM

Question: What about the TGI (NCI-H522 lung) of the same compound?
Answer: > 100 µM

Question: And the TGI (NCI/ADR-RES ovarian)?
Answer: > 100 µM

Question: And the TGI (OVCAR-3 ovarian)?
Answer: > 100 µM

Question: And the TGI (OVCAR-4 ovarian)?
Answer: > 100 µM

Question: What about the TGI (OVCAR-5 ovarian) of the same compound?
Answer: > 100 µM

Question: And the TGI (OVCAR-8 ovarian)?
Answer: > 100 µM

Question: What about the TGI (PC-3 prostate) of the same compound?
Answer: > 100 µM

Question: And the TGI (RPMI-8226 leukemia)?
Answer: > 100 µM

Question: What about the TGI (RXF 393 renal) of the same compound?
Answer: > 100 µM

Question: And the TGI (SF-268 CNS)?
Answer: > 100 µM

Question: And the TGI (SF-295 CNS)?
Answer: > 100 µM

Question: And the TGI (SF-539 CNS)?
Answer: > 100 µM

Question: And the TGI (SK-MEL-2 melanoma)?
Answer: > 100 µM

Question: What about the TGI (SK-MEL-28 melanoma) of the same compound?
Answer: > 100 µM

Question: What about the TGI (SK-MEL-5 melanoma) of the same compound?
Answer: > 100 µM

Question: And the TGI (SK-OV-3 ovarian)?
Answer: > 100 µM

Question: And the TGI (SN12C renal)?
Answer: > 100 µM

Question: What about the TGI (SNB-19 CNS) of the same compound?
Answer: > 100 µM

Question: And the TGI (SNB-75 CNS)?
Answer: > 100 µM

Question: What about the TGI (SR leukemia) of the same compound?
Answer: > 100 µM

Question: And the TGI (SW-620 colon)?
Answer: > 100 µM

Question: What about the TGI (T-47D breast) of the same compound?
Answer: > 100 µM

Question: And the TGI (TK-10 renal)?
Answer: > 100 µM

Question: What about the TGI (U251 CNS) of the same compound?
Answer: > 100 µM

Question: What about the TGI (UACC-257 melanoma) of the same compound?
Answer: > 100 µM

Question: And the TGI (UACC-62 melanoma)?
Answer: > 100 µM

Question: And the TGI (UO-31 renal)?
Answer: > 100 µM
